According to patent US20250108023A1, “Products for Masking Bitterness” (The Third People's Hospital of Henan Province, priority 2023, published 2025):
Where two headings read alike, the source gives them in different places.

Legend:
[1] = Oral spray bitterness masking taste test by volunteers with Coptis chinensis standard bitter solution; assay type: in vivo, healthy volunteers; design: key to bitterness value after drug: bitterness value 0.5–5.5; 1 = none, 5 = unbearable; key to Reduction of bitterness: drop in bitterness value (0.5–5.5 scale) from initial; settings: for inhibition in vivo at 0.2 %: Homo sapiens, read-out: Reduction range; for Duration >: retention time until bitterness rises; for bitterness value after drug: initial bitterness 4.0, 16 cases; for Reduction of bitterness: original bitterness average 4.0, average of 31 cases
Protocol: Purpose of the experiment: it is to screen out compounds that take effect within 5 seconds, last for 30-120 seconds, and it is expected, by using such kind of compounds, the taste of the drug cannot be felt during the duration (30-120 seconds) when taking the drug.
Principle of the experiment: simulate the process of taking medicine and using the taste masking agents, first spray about 0.5 ml of oral spray on the throat (3 times), and after it takes effect quickly, taste 10 ml of bitter standard solution to screen drugs that can be used in advance and can mask the bitter taste.
• 1: Volunteer screening. The research team strictly screened the recruited volunteers and finally selected healthy volunteers as subjects. They signed informed consent forms before the experiment; • 2: Standard bitterness sample preparation. The bitterness of the samples was divided into five levels, and each level was assigned a certain bitterness value range; • 3: The sensory standard was corrected by the oral taste evaluation method, that is, the sensory standard was corrected by comparing the taste evaluation of the volunteers with the established bitterness value of the reference sample group. Specific steps: when the volunteers are doing the oral tasting test, the reference solutions of various concentrations are placed in the tasting cups, and the volunteers hold one of the solutions in their mouths, time it, and rinse their mouths by using the solution so that the bitter taste perception area at the root and sides of the tongue can fully feel the bitter taste of the drug. […] Then dilute all the selected taste masking drugs, prepare the solution, take 10 ml and put it into the spray bottle, spray it into the mouth 3 times, stay for 5 seconds, drink 10 ml of standard bitterness solution, feel and record the bitterness value, keep the standard bitterness solution in the mouth until the bitterness rises, and record the retention time. • 5: Quality control. […] Since the experimental objects are biological samples and there are individual differences between different subjects, there may be individual outliers in the experimental test data. The Grubbs test method was used to exclude outliers in the data, and then the experimental data were plotted in tables and curves for data analysis.
It is necessary to process the experimental data. Specifically, the Grubbs test method was used to perform a circular test and elimination of outliers on the data, and a bilateral test was used to eliminate outliers in the oral test. Considering the characteristics of biological samples, the detection level was selected as 0.1 and the elimination level was selected as 0.05 in this experiment.
The experimental medicinal material processing method mentioned in the above technical scheme is as follows: Preparation of bitter standard solution, use 10 g of Coptis chinensis powder, add 100 ml of pure water above 90 degrees, stir, let stand for 20 minutes, take the supernatant for use, determine the standard bitterness of 4.0 degrees by oral tasting, dilute 5 times, determine the standard bitterness of 2.0 degrees, dilute 2.0 degrees again 5 times, determine the standard bitterness of 0.5 degrees. Compare with the bitterness scoring table, (level 1 means “no bitterness or almost no bitterness”, the bitterness value is 0.5˜1.5; level 2 means “slightly bitter”, the bitterness value is 1.5˜2.5; level 3 means “bitter but acceptable”, the bitterness value is 2.5˜3.5; level 4 means “very bitter, but still tolerable”, the bitterness value is 3.5˜4.5; level 5 means “unbearable bitterness”, the bitterness value is 4.5˜5.5). Adjust the judgment and cognition of bitterness.
The standard bitterness solution used in this experiment to verify the experimental effect is a 4.0 degree bitterness solution of Coptis chinensis prepared according to the above method.

[2] = Broad-spectrum taste masking test on decoctions of extremely bitter Chinese herbal medicine slices; assay type: in vivo, healthy volunteers; design: key: reduction in bitterness degrees on a 5-degree graduation scale; settings: 0.1% taste masking agent in 40% ethanol
Protocol: According to the standard of decocting 100 ml of liquid from 10 g of dry Chinese herbal medicine slices (decoction method: use a stainless steel container, and keep for 20 minutes after boiling), from 300 commonly used Chinese herbal medicine slices, combined with the Chinese Pharmacopoeia, more than 20 Chinese herbal medicines with bitter or extremely bitter properties written in the pharmacopoeia were selected, including Bletilla striata, Cortex qin, Stephania tetrandra, Apricot kernel, Belamcanda chinensis, Angelica dahurica, Lotus seed heart, Toosendan fruit, Andrographis paniculata, Sophora flavescens, Coptis chinensis, Gentiana scabra, Forsythia suspensa, Sophora japonica, Phellodendron amurense, Scutellaria baicalensis, Platycodon grandiflorum, Notopterygium wilfordii, Saposhnikovia divaricata, Perilla frutescens, Zanthoxylum bungeana, Osmanthus fragrans, Sophora flavescens, and Chrysanthemum officinale, totally 24 kinds of Chinese herbal medicines.
Finally, through the 5-degree graduation method, 2 species with a bitterness higher than 3.5 (moderate bitterness) and 7 species with a bitterness higher than 5 degrees (highly bitter, extremely bitter, accompanied by nausea) were screened out, a total of 9 species (Angelica pubescens, Lotus Seed Heart, Toosendan, Andrographis paniculata, Sophora flavescens, Coptis chinensis, Gentiana scabra, Forsythia suspensa, Sophora japonica) are selected as bitterness representatives to participate in the bitterness masking experiment. (Note: The bitterness of Coptis chinensis slices can reach 5.2 after 20 minutes of water decoction. The reference standard solution is 90-degree water brewing Coptis chinensis powder, it is automatically cooled to obtain a solution with a bitter taste of 4.0. Because Coptis chinensis has been used as a standard bitter liquid, it is no longer used).
The experimental method is the same as the previous part.

[3] = 0.2% solution in 60% ethanol as oral spray, relative to original bitterness 4.0
[4] = 0.2% solution in 60% ethanol as oral spray
[5] = concentration 0.001% in 60% ethanol
[6] = concentration 0.005% in 60% ethanol
[7] = concentration 0.02% in 60% ethanol
[8] = concentration 0.10% in 60% ethanol
[9] = concentration 0.50% in 60% ethanol

Molecule	inhibition in vivo at 0.2 % [1, 3]	Duration > [1, 4]	bitterness value after drug [1, 5]	bitterness value after drug [1, 6]	bitterness value after drug [1, 7]	bitterness value after drug [1, 8]	bitterness value after drug [1, 9]	Reduction of bitterness [1, 4]	Reduction range [1, 3]	also measured
CCOC(=O)C1=C(COCCN)NC(C)=C(C(=O)OC)C1c1ccccc1Cl (stereo not shown) [Amlodipine, reference compound]	0%	–	–	–	–	–	–	–	–	–
CC1(C)C2CCC1(C)C(O)C2 (stereo not shown) [Borneolum, 2-borneol]	52.5%	> 10 s	4	3.4	2.6	1.9	2.2	–	–	–
Cc1ccc(C(C)C)cc1O [Carvacrol]	–	–	–	–	–	–	–	–	–	inhibition in vivo at 0.2 % ([1]; po): 0%
CCOC(=O)CNC(=O)[C@@H]1C[C@H](C)CC[C@H]1C(C)C [Cooling agent WS-5, [((IR, 2S, 5R)-2-isopropyl-5-methyl-cyclohexanecarbonyl)-amino]-ethyl acetate]	–	> 100 s	2.6	1.8	1.7	1.7	1.8	2.3	57.50%	–
CNC(=O)C(C)(C(C)C)C(C)C [Cooling agent WS-23, N,2,3-trimethyl-2-isopropylbutyramide]	50%	> 30 s	2.5	2.4	2.1	2	2.1	–	–	–
CCCCCC1=C(C)CCC1=O [Dihydrojasmone]	–	–	–	–	–	–	–	0	0.00%	–
COC(=O)[C@@H]1CC2=CC(=O)CC[C@]2(C)[C@@]23O[C@@H]2C[C@@]2(C)[C@@H](CC[C@@]24CCC(=O)O4)[C@H]13 [Eplerenone, reference compound]	0%	–	–	–	–	–	–	–	–	–
COc1cc(C=O)cc(O)c1O [Hydroxyvanillin]	–	–	–	–	–	–	–	0	0.00%	–
O=S(=O)([O-])[O-].[Mg+2] [Magnesium sulfate]	–	> 20 s	3.5	3.2	2.8	2.5	2.3	1.5	37.50%	–
CCNC(=O)[C@@H]1C[C@H](C)CC[C@H]1C(C)C [Menthamide, N-ethyl-L-menthyl carboxamide]	–	> 120 s	2.4	1.8	1.5	1.5	1.6	2.5	62.50%	Bitterness reduction value ([2]; Andrographis paniculata, original bitterness 5): 0.5; Bitterness reduction value ([2]; Forsythia suspensa, original bitterness 3): 1.7; Bitterness reduction value ([2]; Gentiana, original bitterness 5): 1; Bitterness reduction value ([2]; Lotus seed heart, original bitterness 5): 2.8; Bitterness reduction value ([2]; Puhuo, original bitterness 5): 2.1; Bitterness reduction value ([2]; Sophora flavescens, original bitterness 5): 1; Bitterness reduction value ([2]; Toulianzi, original bitterness 5): 1
COC(=O)C1=C(C)NC(C)=C(C(=O)OC)C1c1ccccc1[N+](=O)[O-] [Nifedipine, reference compound]	0%	–	–	–	–	–	–	–	–	–
O=C(CCc1ccc(O)cc1)c1c(O)cc(O)cc1O [Phloretin]	0%	–	–	–	–	–	–	–	–	–
O=C(/C=C/C=C/c1ccc2c(c1)OCO2)N1CCCCC1 [Piperine, (E,E)-1-[5-(1,3-benzodioxol-5-yl)-1-oxo-2,4-pentadieny1]-piperidine]	52.5%	> 30 s	3.9	2.5	2.3	1.9	1.9	–	–	–
CCCN(CCC)S(=O)(=O)c1ccc(C(=O)O)cc1 [Probenecid, reference compound]	12.5%	> 30 s	–	–	–	–	–	–	–	–
O=c1c(O)c(-c2ccc(O)c(O)c2)oc2cc(O)cc(O)c12 [Quinolide]	0%	–	–	–	–	–	–	–	–	–
CC1CC(O)CC(C)(C)C1 (stereo not shown) [Trimethylcyclohexanol]	–	–	–	–	–	–	–	0	0.00%	–
Dodecalactone	–	–	–	–	–	–	–	0	0.00%	–
trans-caryophyllene	–	> 30 s	3.8	2.6	1.9	1.7	1.8	2.3	57.50%	–
